Assay [1] has as its target T1, FANGCYP6P9a (Anopheles funestus, UniProt K7Z0P3). As to the kind of experiment: Pyrethroid depletion (metabolism) assay with recombinant enzyme. Format: biochemical. Conditions: 20μM insecticide, 1 hour, vs -NADPH.
Procedure: (§3) Membrane expressing recombinant CYP6P9a/-b and AgCPR, and reconstituted cytochrome b5 were added to the side of the tube and pre-incubated for 5 minutes at 30°C, with shaking at 1,200 rpm to activate the membrane. 20μM of test insecticide was then added into the final volume of 0.2ml (~2.5% v/v methanol), and reaction started by vortexing at 1,200 rpm and 30°C for 1 hour. Reactions were quenched with 0.1ml ice-cold methanol and incubated for 5 more minutes. Tubes were then centrifuged at 16,000 rpm and 4°C for 15 minutes, and 150μl of supernatant transferred into HPLC vials for analysis. Reactions were carried out in triplicates with experimental samples (+NADPH) and negative controls (-NADPH). 100μl of sample was loaded onto an isocratic mobile phase (90:10 v/v methanol to water) with a flow rate of 1ml/min, monitoring wavelength of 226nm and peaks separated with a 250mm C18 column (Acclaim 120, Dionex) on Agilent 1260 Infinity at 23°C. Enzyme activity was calculated as percentage depletion (the difference in the amount of insecticide(s) remaining in the +NADPH tubes compared with the–NADPH) and a t-test used for statistical analysis.
The next assay addresses UGANCYP6P9a (Anopheles funestus, UniProt B5AII6). The description is as above. Format: biochemical. To be noted: 20μM insecticide, 1 hour, vs -NADPH.
The target in another assay is MALCYP6P9b (Anopheles funestus, UniProt B5AII7). The description is as above. In kind it is biochemical. To be noted: 20μM insecticide, 1 hour, vs -NADPH.
Assay [2] has as its target T1, FANGCYP6P9a. As for the experimental part:
(§1) Reactions were performed in triplicates both for +NADPH (experimental tubes) and–NADPH (negative control). K m and V max were established from the plot of substrate concentrations against the initial velocities and fitting of the data to the Michaelis-Menten module using the least squares non-linear regression, as described in the GraphPad Prism 6.03 Software (GraphPad Inc., La Jolla, CA, USA).

For the next assay, the target named is FANGCYP6P9b (Anopheles funestus, UniProt A0A0S1RZ61). As for the experimental part:
as §1

A further assay concerns the target Val^109Ile_CYP6P9b (Anopheles funestus, UniProt B5AII7, V109I). As to the kind of experiment: Kinetics of permethrin metabolism by CYP6P9b mutants. In kind it is biochemical. On the procedure: as §1
(§2) In addition, fluorescent probes were also screened to establish differences in the O-dealkylation activity of the mutants compared with the wild type enzyme. All in vitro and kinetic analyses were conducted as described above. However, as different mutants expressed with varying concentrations all assays were conducted within linear range, with the amount of enzyme and time which produced highest activities.

In assay [3] the target is wild type recombinant MALCYP6P9b (wrMALCYP6P9b) (Anopheles funestus, UniProt B5AII7). On the procedure:
as §1, §2

In a further assay the test system is CYP6M2. More on the design: method as in ref [5] (S1 Text). Conditions: cited from earlier work.

Marks after values point to notes of the source that are not given here.

The values that follow come from PMC4627800, “Allelic Variation of Cytochrome P450s Drives Resistance to Bednet Insecticides in a Major Malaria Vector” (PLoS Genetics, 2015).

A word on the Km: it is the concentration of substrate that gives half-maximal velocity.

Procedure for UGANCYP6P9a: as §3

Take `CC1(C)C(C=C(Cl)Cl)C1C(=O)OCc1cccc(Oc2ccccc2)c1` (centres unmarked) [permethrin]: the Percentage depletion at FANGCYP6P9a [1] is 29.0±1.42%; on UGANCYP6P9a it was 60.71±0.92 %; on MALCYP6P9b, “more than 90%”; at MALCYP6P9b (listed as Permethrin), 91.6±2.5 %. In addition, the Kcat at FANGCYP6P9a [2] is 0.0825 ± 0.032 s⁻¹; on FANGCYP6P9b it was 0.075 ± 0.0225 s⁻¹; at Val^109Ile_CYP6P9b (Val^109Ile_CYP6P9b, mean ± S.E.M.), 1.35±0.57** min^-1; in assay [3], 0.1317 ± 0.0138 s⁻¹. Further, the Km at FANGCYP6P9b was 20.5 ± 8.31 µM; on Val^109Ile_CYP6P9b, 20.5 ± 1.35 µM; in assay [3], 10.3 ± 2.38 µM; in the assay on CYP6M2 (An. gambiae CYP6M2 ref [5] (S1 Text)), 12 µM. Further, on Val^109Ile_CYP6P9b, the “Km of mutant, fold of Asp^335Glu mutant” value is reported as 4 fold. For the same compound, the “Km of mutant, fold of wrMALCYP6P9b” value on Val^109Ile_CYP6P9b amounted to 2 fold. Also, on Val^109Ile_CYP6P9b (wrMALCYP6P9b vs Val^109Ile), the “Kcat of wrMALCYP6P9b, fold of mutant” value stood at 6 fold. Also, the “catalytic efficiency of wrMALCYP6P9b, fold of mutant” value at Val^109Ile_CYP6P9b (wrMALCYP6P9b vs Val^109Ile) is on record as 13 fold. Besides, in the assay with CYP6M2 (Anopheles gambiae CYP6M2 ref [5] (S1 Text)), the catalytic efficiency is ~ 0.5 min^-1µM^-1.
